Test results: patent US5677336A, “Non-steroid androgen receptor antagonist compounds and methods” (Ligand Pharmaceuticals Incorporated, priority 1993, dated 1997)

Biological target: T1, androgen receptor (Homo sapiens, UniProt P10275)
T1 construct: expressed in transfected cells; host or cells: CV-1 (monkey kidney fibroblast) cells, plasmid pRShAR, with reporter plasmid MTV-LUC
T1 sequence (P10275 1-920): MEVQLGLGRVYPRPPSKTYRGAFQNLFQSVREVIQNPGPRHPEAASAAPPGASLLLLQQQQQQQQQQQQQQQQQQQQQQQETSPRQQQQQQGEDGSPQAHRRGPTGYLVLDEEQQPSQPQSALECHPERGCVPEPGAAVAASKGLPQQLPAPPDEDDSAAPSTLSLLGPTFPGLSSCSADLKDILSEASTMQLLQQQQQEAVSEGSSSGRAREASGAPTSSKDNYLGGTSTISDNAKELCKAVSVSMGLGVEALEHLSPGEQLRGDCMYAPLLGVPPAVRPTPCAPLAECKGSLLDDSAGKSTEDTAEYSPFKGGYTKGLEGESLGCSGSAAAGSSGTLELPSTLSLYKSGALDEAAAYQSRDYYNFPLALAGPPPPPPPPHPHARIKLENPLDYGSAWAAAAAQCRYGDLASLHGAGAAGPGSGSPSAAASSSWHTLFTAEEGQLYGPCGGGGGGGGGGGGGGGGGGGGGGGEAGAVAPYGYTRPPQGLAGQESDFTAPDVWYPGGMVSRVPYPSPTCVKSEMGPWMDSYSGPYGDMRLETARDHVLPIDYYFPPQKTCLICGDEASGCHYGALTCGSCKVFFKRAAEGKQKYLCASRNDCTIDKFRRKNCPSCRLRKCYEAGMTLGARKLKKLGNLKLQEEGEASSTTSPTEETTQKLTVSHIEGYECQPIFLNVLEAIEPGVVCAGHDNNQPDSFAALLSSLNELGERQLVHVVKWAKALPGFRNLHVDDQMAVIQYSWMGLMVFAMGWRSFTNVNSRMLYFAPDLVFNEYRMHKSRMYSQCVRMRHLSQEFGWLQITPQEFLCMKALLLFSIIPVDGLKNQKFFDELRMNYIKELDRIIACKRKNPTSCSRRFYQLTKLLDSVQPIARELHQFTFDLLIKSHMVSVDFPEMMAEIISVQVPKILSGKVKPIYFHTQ
Test: Co-transfection androgen antagonist assay (CV-1 cells, pRShAR, MTV-LUC reporter; AR-wt)
Format: cell-based
Settings: Table 1, androgen antagonists; for Emax: CV-1, relative to 2-Hydroxy-flutamide, read-out: Efficacy (% maximal response relative to 2-Hydroxy-flutamide); for IC50: read-out: Potency (IC50, concentration required to reduce the maximal response by 50%)
Excerpt: The co-transfection assay provides a method for identifying functional ligands (either agonists which mimic, or antagonists which inhibit, the effect of hormones), and quantifying their activity for ligand-responsive receptor proteins. In this regard, the co-transfection assay mimics an in vivo system in the laboratory. Importantly, activity in the co-transfection assay correlates very well with known in vivo activity, such that the co-transfection assay functions as a quantitative predicator of a tested compounds in vivo pharmacology. See, e.g., T. Berger et al. 41 J. Steroid Biochem. Molec.
In the co-transfection assay, a cloned gene for an intracellular receptor (e.g., androgen receptor) is introduced by transfection (a procedure to induce cells to take up foreign genes) into a background cell substantially devoid of endogenous intracellular receptors. This introduced gene directs the recipient cells to make the intracellular receptor protein. A second gene is also introduced (co-transfected) into the same cells in conjunction with the intracellular receptor gene. This second gene functions as a reporter for the transcription-modulating activity of the target intracellular receptor. Thus, the reporter acts as a surrogate for the products normally expressed by a gene under control of the target receptor and its natural hormone. A preferred reporter gene is one which expresses the firefly enzyme luciferase.
The co-transfection assay can detect small molecule agonists or antagonists of target intracellular receptors. Exposing the cells to an agonist ligand increases reporter activity in the transfected cells. This activity can be conveniently measured, e.g., by increasing luciferase production, which reflects ligand-dependent, intracellular receptor-mediated increases in reporter transcription. To detect antagonists, the co-transfection assay is carried out in the presence of a constant concentration of an agonist (e.g., for androgen receptor, dihydrotestosterone) known to induce a defined reporter signal. Increasing concentrations of a test antagonist will decrease the reporter signal (e.g., luciferase production). The co-transfection assay is therefore useful to detect both agonists and antagonists of specific intracellular receptors. It determines not only whether a compound interacts with a particular intracellular receptor, but whether this interaction mimics (agonizes) or blocks (antagonizes) the effects of the natural regulatory molecules on target gene expression, as well as the specificity and strength of this interaction.
Co-transfected cells are exposed to a medium to which is added the potential ligand (compound) that is being evaluated. If the candidate compound diffuses into the cell, binds to the receptor, and the resulting receptor complex functions as an agonist, it will subsequently bind to the co-transfected reporter gene and initiate transcription. Typically, the reporter gene is one that expresses luciferase, which is capable of catalyzing a light-emitting reaction with its substrate luciferin. Thus, after cell lysis and the introduction of luciferin, the amount of light produced relative to the concentration of candidate compound used in the assay provides a measure of the potency and efficacy of the compound tested. Antagonist activity is evaluated by adding the candidate ligand and a known agonist to the co-transfected cells. […]

SMILES	Emax [%]	IC50 [nM]
COc1cc(C[C@@H]2CCCC[C@@]2(C)O)c(O)cc1Br (relative stereo) [Q, trans-1-Methyl-2-(2'-hydroxy-4'-bromo-5'-methoxyphenyl)methylcyclohexan-1-ol]	94	460
C=C1C[C@H](C)CC(C)(C)[C@@H]1Cc1cc(OC)c(Br)cc1O (relative stereo) [S, cis-1Methylidene-2-(2'-hydroxy-4'-bromo-5'-methoxyphenyl)methyl-3,3,5-trimethyl-cyclohexane]	92	500
C=C1CCC(C)(C)C1Cc1cc(OC)c(Br)cc1O (stereo not drawn) [K, 1-Methylidene-2-(2'-hydroxy-4'-bromo-5'methoxyphenyl)methyl-3,3-dimethylcyclo-pentane]	91	330
C=C1C=CC[C@@H](C)[C@@H]1Cc1cc(OC)c(Br)cc1OC(C)=O [L, (5R,6S)-1-Methylidene-6-(2'-acetoxy-4'-bromo-5'-methoxyphenyl)methyl-5-methylcyclohex-2-ene]	88	370
C=C1C=C(C)C[C@@H](C)[C@@H]1Cc1cc(OC)c(Br)cc1OC(C)=O [O, (5R,6S)-1-Methylidene-6-(2'-acetoxy-4'-bromo-5 '-methoxyphenyl)methyl-3,5-dimethyl-cyclohex-2-ene]	78	390
C=C1[C@@H](Cc2cc(OC)c(Br)cc2O)C(C)(C)CC[C@@]1(C)O [P, (1R,3S)-1-Hydroxy-2-methylidene-3-(2'-hydroxy-4'-bromo-5'-methoxyphenyl)methyl-1,4,4-trimethylcyclohexane]	88	420
C=C1[C@H](O)CCC(C)(C)[C@H]1Cc1cc(OC)c(Br)cc1O [R, (1R,3R)-1-Hydroxy-2-methylidene-3-(2'-hydroxy-4'-bromo-5'-methoxyphenyl)methyl-4,4-dimethylcyclohexane]	70	500
C=C1C=CCC(C)(C)C1Cc1ccc([N+](=O)[O-])c(C)c1 (stereo not drawn) [T, 1-Methylidene-6-(3'-methyl-4'-nitrophenyl)methyl-5,5-dimethylcyclohex-2-ene]	88	545
C=C1C=C(C)CC(C)(C)C1Cc1ccc([N+](=O)[O-])c(C)c1 (stereo not drawn) [U, 1-Methylidene-6-(3'-methyl-4'-nitrophenyl)methyl-3,5,5-trimethylcyclohex-2-ene]	69	565
CC1(C)CCCC(=O)C1Cc1ccc([N+](=O)[O-])cc1 (stereo not drawn) [V, 2-(4'-Nitrophenyl)methyl-3.3-dimethylcyclohexan-1-one]	85	590
C=C1C=CCC(C)(C)C1Cc1cc(OC)c(Br)cc1O (stereo not drawn) [W, 1-Methylidene-6-(2'-hydroxy-4'-bromo-5'-methoxyphenyl)methyl-5,5-dimethylcyclo-hex-2-ene]	89	610
COc1cc(CC2CCCCC2=O)c(O)cc1Br (stereo not drawn) [Y, 2-(2'-hydroxy-4'-bromo-5 '-methoxyphenyl)methylcyclohex-1-one]	67	340
